pIC50: −log10 of the molar value.

This assay concerns the target T1, bromodomain BRD4 (44-168), BRD4 (333-460), and BRD4 (1-477 or 44-460) (Homo sapiens, UniProt O60885).
T1 construct: BRD4(44-168), BRD4(333-460), BRD4(44-460), BRD4(1-477), O60885-1; fused on or other part: N-terminal BirA biotinylation motif, biotinylated; The TVMV-cleavable His6 tag is removed, except in some BRD4(44-460) runs detected with anti-His terbium cryptate
The experiment in a line: Time Resolved Fluorescence Resonance Energy Transfer (TR-FRET) binding assay. As to conditions: one of the FRET assays described. (In general: In TR-FRET formats the signal depends on donor and acceptor labels being close together.)

A word on the pIC50: it is the IC50 on a negative log10 scale, so that one unit is a factor of ten. Consider `COc1ccccc1Cn1c2ccc(C(=O)N3CCC(F)C3)cc2c2c(C(N)=O)cc(-c3c(C)noc3C)cc21` (stereo not shown) [Example 82], for which the negative logarithm of the IC50 (pIC50) is over 7.30.

Consider `Cc1noc(C)c1-c1cc(C(N)=O)c2c3cc(C(=O)N4C[C@@H](C)O[C@@H](C)C4)ccc3n(S(=O)(=O)c3ccccc3)c2c1` [Example 45, 2-(3,5-dimethylisoxazol-4-yl)-6-(cis-2,6-dimethylmorpholine-4-carbonyl)-9-(phenylsulfonyl)-9H-carbazole-4-carboxamide], for which the pIC50 was over 5.12.

Take `Cc1noc(C)c1-c1ccc2c3cc(C(=O)N4CCOCC4)ccc3n(CC3CC3)c2c1` [Example 22, 9-(cyclopropylmethyl)-2-(3,5-dimethyl-4-isoxazolyl)-6-(4-morpholinylcarbonyl)-9H-carbazole]: the pIC50 is over 6.30.

Consider `Cc1noc(C)c1-c1cc(C(N)=O)c2c3cc(N4CCCOC4=O)ccc3n(C(C)c3ccccc3)c2c1` (stereo not shown) [Example 158, 2-(3,5-dimethyl-4-isoxazolyl)-6-(2-oxo-1,3-oxazinan-3-yl)-9-(1-phenylethyl)-9H-carbazole-4-carboxamide], for which the negative-log IC50 (pIC50) was over 7.30.

Take `Cc1noc(C)c1-c1cc(C(N)=O)c2c3cc(C(=O)N4CCC4C)ccc3n(Cc3ccccc3)c2c1` (stereo not shown) [Example 54]: the pIC50 was over 7.30.

In turn, `Cc1nnn(C)c1-c1cc(C(N)=O)c2c3ccc(C(C)(C)O)cc3n(C(c3ccccc3)C3CCOCC3)c2c1` (single isomer, unassigned) [Example 233, 2-(1,4-Dimethyl-1H-1,2,3-triazol-5-yl)-7-(2-hydroxypropan-2-yl)-9-(phenyl(tetrahydro-2H-pyran-4-yl)methyl)-9H-carbazole-4-carboxamide] had a negative logarithm of the IC50 (pIC50) of over 7.30.

Consider `Cc1noc(C)c1-c1cc(C(=O)NC(C)C)c2c3cc(C(=O)N4CC(F)C4)ccc3n(Cc3ccc(F)cc3)c2c1` [Example 127, 2-(3,5-dimethyl-4-isoxazolyl)-6-((3-fluoro-1-azetidinyl)carbonyl)-9-(4-fluorobenzyl)-N-isopropyl-9H-carbazole-4-carboxamide], for which the pIC50 is over 5.12.

Take `Cc1ccccc1Cn1c2ccc(C(=O)N3CC(C)OC(C)C3)cc2c2ccc(-c3c(C)noc3C)cc21` (stereo not shown) [Example 19]: the pIC50 is over 6.30.

`Cc1noc(C)c1-c1cc(C(N)=O)c2c3cc(NCC#N)ccc3n(Cc3ccccc3)c2c1` [Example 138, 9-benzyl-6-((cyanomethyl)amino)-2-(3,5-dimethyl-4-isoxazolyl)-9H-carbazole-4-carboxamide] gave a pIC50 of over 7.30.

The compound `Cc1noc(C)c1-c1cc(C(N)=O)c2c3cc(C(=O)N4CCC(F)C4)ccc3n(Cc3ccc(Cl)cc3)c2c1` (stereo not shown) [Example 80] gave a pIC50 of over 7.30.

Regarding `Cc1noc(C)c1-c1cc(C(N)=O)c2c3cc(C(=O)N4CC(C)OC(C)C4)ccc3n(Cc3ccccc3Cl)c2c1` (stereo not shown) [Example 33], the negative logarithm of the IC50 (pIC50) is over 7.30.

Consider `CCNC(=O)c1cc(-c2c(C)noc2C)cc2c1c1cc(N3CCCOC3=O)ccc1n2C(C)c1ccccc1` (stereo not shown) [Example 167, 2-(3,5-dimethyl-4-isoxazolyl)-N-ethyl-6-(2-oxo-1,3-oxazinan-3-yl)-(1-phenylethyl)-9H-carbazole-4-carboxamide], for which the pIC50 was over 7.30.

Compound `Cc1noc(C)c1-c1cc(C(N)=O)c2c3cc(C(=O)N4CC(F)(F)C4)ccc3n(Cc3ccc(Cl)cc3)c2c1` [Example 95, 9-(4-chlorobenzyl)-6-((3,3-difluoro-1-azetidinyl)carbonyl)-2-(3,5-dimethyl-4-isoxazolyl)-9H-carbazole-4-carboxamide] showed a pIC50 of over 7.30.

With `Cc1noc(C)c1-c1cc(C(N)=O)c2c3cc(C(=O)N4CC(F)C4)ccc3n(CC3CC3)c2c1` [Example 92], the negative-log IC50 (pIC50) is over 7.30.

Take `COCCn1c2ccc(C(=O)N3CC(C)OC(C)C3)cc2c2ccc(-c3c(C)noc3C)cc21` (stereo not shown) [Example 8]: the pIC50 was over 6.30.

In turn, `Cc1nocc1-c1cc(C(N)=O)c2c3cc(C(=O)N4CCOCC4)ccc3n(Cc3ccc(F)cc3)c2c1` [Example 122, 9-(4-fluorobenzyl)-2-(3-methyl-4-isoxazolyl)-6-(4-morpholinylcarbonyl)-9H-carbazole-4-carboxamide] had a pIC50 of over 7.30.

Compound `Cc1noc(C)c1-c1cc(C(N)=O)c2c3ccc(C(C)(C)O)cc3n(C(c3ccc(F)cc3)C3CCOCC3)c2c1` (single isomer, unassigned) [Example 220, 2-(Dimethyl-1,2-oxazol-4-yl)-9-[(4-fluorophenyl)(oxan-4-yl)methyl]-7-(2-hydroxypropan-2-yl)-9H-carbazole-4-carboxamide] gave a pIC50 of over 7.30.

`Cc1noc(C)c1-c1cc(C(N)=O)c2c3cc(C(=O)N4CC(F)(F)C4)ccc3n(C(C)c3ccccc3)c2c1` (racemic) [Example 96, 6-((3,3-difluoro-1-azetidinyl)carbonyl)-2-(3,5-dimethyl-4-isoxazolyl)-9-(1-phenylethyl)-9H-carbazole-4-carboxamide]: the pIC50 was over 7.30.

The compound `CCCn1c2ccc(C(=O)N3CC(C)OC(C)C3)cc2c2ccc(-c3c(C)noc3C)cc21` (stereo not shown) [Example 3] had a pIC50 of over 6.30.

For the compound `Cc1noc(C)c1-c1cc(C(N)=O)c2c3ccc(C(C)(C)O)cc3n(C(c3ccccc3)C3CCOCC3)c2c1` (single isomer, unassigned) [Example 199], the pIC50 was over 7.30.

For `Cc1noc(C)c1-c1cc(C(N)=O)c2c3cc(C(=O)N4CCCOCC4)ccc3n(Cc3ccccc3)c2c1` [Example 56], the pIC50 was over 7.30.

`Cc1noc(C)c1-c1cc(C(N)=O)c2c3cc(C(=O)N4CC(C)OC(C)C4)ccc3n(Cc3ccccc3)c2c1` (stereo not shown) [Example 69] had a pIC50 of over 7.30.

For the compound `CON(C)C(=O)c1ccc2c3c(C(N)=O)cc(-c4c(C)noc4C)cc3n(Cc3ccccc3)c2c1` [Example 189, 9-Benzyl-7-(3,5-dimethyl-4-isoxazolyl)-N˜2˜-methoxy-N˜2˜-methyl-9H-carbazole-2,5-dicarboxamide], the pIC50 was over 7.30.

`Cc1noc(C)c1-c1cc(C(N)=O)c2c3cc(C(=O)N4CC[C@H](F)C4)ccc3n(Cc3c(F)cccc3F)c2c1` [Example 79, 9-(2,6-difluorobenzyl)-2-(3,5-dimethyl-4-isoxazolyl)-6-(((3S)-3-fluoro-1-pyrrolidinyl)carbonyl)-9H-carbazole-4-carboxamide] showed a pIC50 of over 7.30.

`Cc1noc(C)c1-c1cc(C#N)c2c3ccc(C(=O)N4CCOCC4)cc3n(Cc3ccccc3)c2c1` [Example 187, 9-Benzyl-2-(3,5-dimethyl-4-isoxazolyl)-7-(morpholine-4-carbonyl)-9H-carbazole-4-carbonitrile] gave a pIC50 of over 6.30.

Compound `Cc1noc(C)c1-c1cc(C(N)=O)c2c3cc(C(=O)N4CC(C)OC(C)C4)ccc3n(Cc3cccc(F)c3F)c2c1` (stereo not shown) [Example 41] gave a pIC50 of over 7.30.

`Cc1noc(C)c1-c1ccc2c3cc(C(=O)N4CC(C)OC(C)C4)ccc3n(CC(F)F)c2c1` (stereo not shown) [Example 7] had a negative-log IC50 (pIC50) of over 6.30.

`Cc1noc(C)c1-c1cc(C(N)=O)c2c3cc(C(=O)N4CC(F)(F)C4)ccc3n(C(C)c3ccccc3)c2c1` (single isomer, unassigned) [Example 98, 6-((3,3-difluoro-1-azetidinyl)carbonyl)-2-(3,5-dimethyl-4-isoxazolyl)-9-(1-phenylethyl)-9H-carbazole-4-carboxamide] gave a pIC50 of over 7.30.

`COc1ccccc1Cn1c2ccc(C(=O)N3CC(C)OC(C)C3)cc2c2ccc(-c3c(C)noc3C)cc21` (stereo not shown) [Example 15] showed a pIC50 of over 6.30.

Consider `Cc1noc(C)c1-c1cc(C(N)=O)c2c3cc(C(=O)N4CC(F)C4)ccc3n(C(C)c3ccc(Cl)cc3)c2c1` (stereo not shown) [Example 94, 9-(1-(4-chlorophenyl)ethyl)-2-(3,5-dimethyl-4-isoxazolyl)-6-((3-fluoro-1-azetidinyl)carbonyl)-9H-carbazole-4-carboxamide], for which the pIC50 was over 7.30.

`Cc1noc(C)c1-c1cc(C(N)=O)c2c3cc(C(=O)N4CC(F)C4)ccc3n(Cc3ccccc3)c2c1` [Example 65] had a pIC50 of over 7.30.

`Cc1noc(C)c1-c1cc(C(N)=O)c2c3cc(C(=O)N4CCC(F)(F)C4)ccc3n(Cc3ccccc3)c2c1` [Example 61] showed a pIC50 of over 7.30.

`Cc1noc(C)c1-c1cc(C(N)=O)c2c3cc(NS(C)(=O)=O)ccc3n(Cc3ccccc3)c2c1` [Example 143, 9-benzyl-2-(3,5-dimethyl-4-isoxazolyl)-6-(methylsulfonamido)-9H-carbazole-4-carboxamide] had a pIC50 of over 7.30.

With `CCNC(=O)c1cc(-c2c(C)noc2C)cc2c1c1cc(N3CCCOC3=O)ccc1n2Cc1ccc(F)cc1` [Example 155, 2-(3,5-dimethyl-4-isoxazolyl)-N-ethyl-9-(4-fluorobenzyl)-6-(2-oxo-1,3-oxazinan-3-yl)-9H-carbazole-4-carboxamide], the pIC50 is over 5.12.

With `Cc1noc(C)c1-c1cc(C(N)=O)c2c3cc(C(=O)N4CC(C)OC(C)C4)ccc3n(Cc3ccc(C#N)cc3)c2c1` (stereo not shown) [Example 37], the pIC50 is over 7.30.

As to `Cc1noc(C)c1-c1cc(C(N)=O)c2c3cc(C(=O)N4CCO[C@H](C)C4)ccc3n(Cc3ccccc3)c2c1` [Example 62], the pIC50 was over 7.30.

Compound `Cc1noc(C)c1-c1cc(C(N)=O)c2c3ccc(C(C)C)cc3n([C@H](c3ccccc3)C3CCOCC3)c2c1` [Example 229, 2-(Dimethyl-1,2-oxazol-4-yl)-9-[(S)-oxan-4-yl(phenyl)methyl]-7-(propan-2-yl)-9H-carbazole-4-carboxamide] had a pIC50 of over 7.30.

In the case of `Cc1noc(C)c1-c1cc(C(N)=O)c2c3ccc(C(C)(C)O)cc3n(C(c3ccccc3)C3CCOCC3)c2c1` (single isomer, unassigned) [Example 198], the negative logarithm of the IC50 (pIC50) is over 7.30.

On to `Cc1noc(C)c1-c1cc(C(=O)N(C)C)c2c3cc(C(=O)N4C[C@@H](C)O[C@@H](C)C4)ccc3n(Cc3ccccc3)c2c1` [Example 118, 9-benzyl-2-(3,5-dimethylisoxazol-4-yl)-6-(cis-2,6-dimethylmorpholine-4-carbonyl)-N,N-dimethyl-9H-carbazole-4-carboxamide], for which the pIC50 was over 6.30.

Compound `Cc1noc(C)c1-c1cc(C(N)=O)c2c3cc(C(=O)N4CC(O)C4)ccc3n(Cc3ccccc3)c2c1` [Example 53] had a pIC50 of over 7.30.

The values are drawn from patent US9492460B2, “Carbazole compounds useful as bromodomain inhibitors” (Bristol-Myers Squibb Company, priority 2013, dated 2016).
